In patent publication US20260008818A1, “CYCLIC PEPTIDE OR SALT THEREOF, AND USES THEREOF” (FUJIFILM Corporation, priority 2023, published 2026):
Numbered stars: 1 amine (or outer) side, 2 acyl side, 3 side chain; on linkers, the order of the positions; unused ones are H or OH. Bridge positions count the residues as written; N and C are the ends. Ends that are not written are not given here. acetyl = K(acetyl): lysine side chain modified with a haloacetyl group whose halogen is replaced by the thiol of another residue, giving a thioether ring, O=C(C[*:1])[*:2]; COCH2 = acetyl group that carries the bridge

Tested on: Recombinant Human FGFR1 alpha (IIIc) Fc Chimera Protein
Experiment: Binding affinity of enzymatically synthesized cyclic peptide to FGFR by ELISA
Settings: luminescence signal at reaction concentration 10 nmol/L, SEQ ID NO: 39 standardized to 1, enzyme synthesis product
Method: The binding affinity of the cyclic peptide to FGFR was evaluated using an ELISA method.
The binding affinity of the enzymatically synthesized cyclic peptide to FGFR was measured by evaluating the amount of the cyclic peptide bound to FGFR by ELISA.
First, 5 ng of Recombinant Human FGFR1 alpha (IIIc) Fc Chimera Protein CF (R&D systems, 658-FR-050) was immobilized in each well of a 96-well plate, and blocked with Pierce Protein-Free (PBS) Blocking Buffer (Thermo, 37572), and a cyclic peptide diluted with Can Get Signal Immunoreaction Enhancer Solution I (TOYOBO, NKB-101) was then added and reacted at room temperature for 3 hours. After washing with 0.05% Tween 20-containing phosphate buffered saline (PBS), an anti-Myc antibody (Cell Signaling, 14038S) diluted with Can Get Signal Immunoreaction Enhancer Solution II (TOYOBO, NKB-101) was added and reacted at room temperature for 2 hours. After washing with 0.05% Tween 20-containing PBS, SuperSignal ELISA Femto Substrate (Thermo, 37075) was added, and the luminescence amount was measured. The dose-response relationship was calculated from using the difference between the luminescence amount in the well in which FGFR was immobilized and the luminescence amount in the well in which FGFR was not immobilized, and the concentration of the cyclic peptide at the time of reaction, and the binding affinity to FGFR was evaluated according to the following evaluation criteria. The evaluation result preferably satisfies the evaluation criteria A, B, or C.
In a case where a value of a luminescence signal emitted by the cyclic peptide set forth in SEQ ID NO: 39 at a reaction concentration of 10 nmol/L is standardized to 1, evaluation criteria of the luminescence signal value emitted by the cyclic peptide at a reaction concentration of 10 nmol/L is as follows. • A: 0.7 or more • B: 0.5 or more and less than 0.7 • C: 0.1 or more and less than 0.5 • D: less than 0.1.

77 (SCSYERLQFHGHEAPFRVK(COCH2)V; thioether 2-19 (inferred)) [compound 77]
Evaluation result of binding affinity to FGFR: A (0.7 or more)

78 (TCSYERLQFHGHEAPFRVKV; not fully specified; Description of Artificial Sequence: Cyclic peptide) [compound 78]
Evaluation result of binding affinity to FGFR: A (0.7 or more)

79 (DCSYERLQFHGHEAPFRVKV; not fully specified; Description of Artificial Sequence: Cyclic peptide) [compound 79]
Evaluation result of binding affinity to FGFR: A (0.7 or more)

80 (ECSYERLQFHGHEAPFRVKV; not fully specified; Description of Artificial Sequence: Cyclic peptide) [compound 80]
Evaluation result of binding affinity to FGFR: A (0.7 or more)

81 (RCSYERLQFHGHEAPFRVKV; not fully specified; Description of Artificial Sequence: Cyclic peptide) [compound 81]
Evaluation result of binding affinity to FGFR: A (0.7 or more)

82 (HCGYERLQFHGHEAPFRVKV; not fully specified; Description of Artificial Sequence: Cyclic peptide) [compound 82]
Evaluation result of binding affinity to FGFR: A (0.7 or more)

83 (HCPYERLQFHGHEAPFRVKV; not fully specified; Description of Artificial Sequence: Cyclic peptide) [compound 83]
Evaluation result of binding affinity to FGFR: A (0.7 or more)

84 (HCLYERLQFHGHEAPFRVKV; not fully specified; Description of Artificial Sequence: Cyclic peptide) [compound 84]
Evaluation result of binding affinity to FGFR: A (0.7 or more)

85 (HCIYERLQFHGHEAPFRVKV; not fully specified; Description of Artificial Sequence: Cyclic peptide) [compound 85]
Evaluation result of binding affinity to FGFR: A (0.7 or more)

86 (HCVYERLQFHGHEAPFRVKV; not fully specified; Description of Artificial Sequence: Cyclic peptide) [compound 86]
Evaluation result of binding affinity to FGFR: A (0.7 or more)

87 (HCFYERLQFHGHEAPFRVKV; not fully specified; Description of Artificial Sequence: Cyclic peptide) [compound 87]
Evaluation result of binding affinity to FGFR: A (0.7 or more)

88 (HCYYERLQFHGHEAPFRVKV; not fully specified; Description of Artificial Sequence: Cyclic peptide) [compound 88]
Evaluation result of binding affinity to FGFR: A (0.7 or more)

89 (HCWYERLQFHGHEAPFRVKV; not fully specified; Description of Artificial Sequence: Cyclic peptide) [compound 89]
Evaluation result of binding affinity to FGFR: A (0.7 or more)

90 (HCNYERLQFHGHEAPFRVKV; not fully specified; Description of Artificial Sequence: Cyclic peptide) [compound 90]
Evaluation result of binding affinity to FGFR: A (0.7 or more)

91 (HCQYERLQFHGHEAPFRVK(COCH2)V; thioether 2-19 via acetyl; not fully specified; printed as H-(C)-QYERLQFHGHEAPFRV-(K(acetyl))-V) [compound 91]
Evaluation result of binding affinity to FGFR: A (0.7 or more)

92 (HCTYERLQFHGHEAPFRVK(COCH2)V; thioether 2-19 via acetyl; not fully specified; printed as H-(C)-TYERLQFHGHEAPFRV-(K(acetyl))-V) [compound 92]
Evaluation result of binding affinity to FGFR: A (0.7 or more)

100 (HCSFERLQFHGHEAPFRVK(COCH2)V; thioether 2-19 (inferred)) [compound 100]
Evaluation result of binding affinity to FGFR: A (0.7 or more)

101 (HCSWERLQFHGHEAPFRVK(COCH2)V; thioether 2-19 (inferred)) [compound 101]
Evaluation result of binding affinity to FGFR: A (0.7 or more)

102 (HCSSERLQFHGHEAPFRVK(COCH2)V; thioether 2-19 (inferred)) [compound 102]
Evaluation result of binding affinity to FGFR: C (0.1 or more and less than 0.5)

103 (HCSTERLQFHGHEAPFRVK(COCH2)V; thioether 2-19 (inferred)) [compound 103]
Evaluation result of binding affinity to FGFR: A (0.7 or more)

104 (HCSHERLQFHGHEAPFRVK(COCH2)V; thioether 2-19 (inferred)) [compound 104]
Evaluation result of binding affinity to FGFR: C (0.1 or more and less than 0.5)

105 (HCSYERLQFHFHEAPFRVK(COCH2)V; thioether 2-19 (inferred)) [compound 105]
Evaluation result of binding affinity to FGFR: C (0.1 or more and less than 0.5)

106 (HCSYERLQFHWHEAPFRVK(COCH2)V; thioether 2-19 (inferred)) [compound 106]
Evaluation result of binding affinity to FGFR: C (0.1 or more and less than 0.5)

107 (HCSYERLQFHNHEAPFRVK(COCH2)V; thioether 2-19 (inferred)) [compound 107]
Evaluation result of binding affinity to FGFR: C (0.1 or more and less than 0.5)

108 (HCSYERLQFHQHEAPFRVK(COCH2)V; thioether 2-19 (inferred)) [compound 108]
Evaluation result of binding affinity to FGFR: C (0.1 or more and less than 0.5)

109 (HCSYERLQFHSHEAPFRVK(COCH2)V; thioether 2-19 (inferred)) [compound 109]
Evaluation result of binding affinity to FGFR: C (0.1 or more and less than 0.5)

110 (HCSYERLQFHGFEAPFRVK(COCH2)V; thioether 2-19 (inferred)) [compound 110]
Evaluation result of binding affinity to FGFR: B (0.5 or more and less than 0.7)

111 (HCSYERLQFHGYEAPFRVK(COCH2)V; thioether 2-19 (inferred)) [compound 111]
Evaluation result of binding affinity to FGFR: C (0.1 or more and less than 0.5)

112 (HCSYERLQFHGWEAPFRVK(COCH2)V; thioether 2-19 (inferred)) [compound 112]
Evaluation result of binding affinity to FGFR: B (0.5 or more and less than 0.7)

113 (HCSYERLQFHGHEGPFRVK(COCH2)V; thioether 2-19 (inferred)) [compound 113]
Evaluation result of binding affinity to FGFR: C (0.1 or more and less than 0.5)

114 (HCSYERLQFHGHEVPFRVK(COCH2)V; thioether 2-19 (inferred)) [compound 114]
Evaluation result of binding affinity to FGFR: C (0.1 or more and less than 0.5)

115 (HCSYERLQFHGHEANFRVK(COCH2)V; thioether 2-19 (inferred)) [compound 115]
Evaluation result of binding affinity to FGFR: B (0.5 or more and less than 0.7)

116 (HCSYERLQFHGHEAQFRVK(COCH2)V; thioether 2-19 (inferred)) [compound 116]
Evaluation result of binding affinity to FGFR: C (0.1 or more and less than 0.5)

117 (HCSYERLQFHGHEADFRVK(COCH2)V; thioether 2-19 (inferred)) [compound 117]
Evaluation result of binding affinity to FGFR: B (0.5 or more and less than 0.7)

118 (HCSYERLQFHGHEAHFRVK(COCH2)V; thioether 2-19 (inferred)) [compound 118]
Evaluation result of binding affinity to FGFR: C (0.1 or more and less than 0.5)

119 (HCSYERLQFHGHEAPYRVK(COCH2)V; thioether 2-19 (inferred)) [compound 119]
Evaluation result of binding affinity to FGFR: C (0.1 or more and less than 0.5)

120 (HCSYGRLQFHGHEAPFRVK(COCH2)V; thioether 2-19 (inferred)) [compound 120]
Evaluation result of binding affinity to FGFR: B (0.5 or more and less than 0.7)
